Values of other authors as cited in patent US20070213270A1, “PEPTIDE YY FORMULATIONS HAVING INCREASED STABILITY AND RESISTANCE TO MICROBIAL AGENTS” (priority 2004, published 2007).

Experiments:
[1] = aqueous solution at physiologic pH

Compound: 2-alkyl-4-hydroxyquinolines [pyo compound]
- concentration producing ciliostasis / inhibiting ciliary motility (ciliary motility): 50 µg/mL

Compound: CC(C)CC(N)B(O)O (centres unmarked) [boro-leucine]
- effectiveness in enzyme inhibition relative to bestatin (aminopeptidases): more than 100 times
- effectiveness in enzyme inhibition relative to puromycin (aminopeptidases): more than 1000 times

Compound: CCN(CC)/[N+]([O-])=N/O.CCNCC [diethylamine/NO]
- rate of NO release [1]: < 3 min

Compound: NCCN(CCN)/[N+]([O-])=N/O [diethylenetriamine/NO (DETANO), diethylenetriamine/NO]
- rate of NO release [1]: approximately 20 hours
